From patent US10328011B2, “Use of proline containing dipeptides” (DSM IP ASSETS B.V., priority 2015, dated 2019)

Columns and labels:
Format in all cases: cell-based
PLOD3 = assay: Gene-expression analysis in normal human dermal fibroblasts: PLOD3; conditions: 24 hrs
Description: PLOD3: The enzyme catalyzes the hydroxylation of lysyl residues in collagen-like peptides. The resultant hydroxylysyl groups are attachment sites for carbohydrates in collagen and thus are critical for the stability of intermolecular crosslinks.
(§1) Normal human dermal fibroblasts at passage 7 from a donor were cultured in DMEM with L-glutamine 2 mM, Penicillin 50 U/ml-Streptomycin 50 ug/ml and 10% FCS in a 5% CO2 atmosphere at 37° C. After equilibration of cell in 1% FCS for 24 hrs the respective peptides H-(beta-Ala)-Pro-Dab-NH-benzyl [CAS 823202-99-9], respectively N-palmitoyl-Gly-His-Lys [147732-56-7]/N-palmitoyl-Gly-Gln-Pro-Arg [221227-C5-0] (2:1) diluted in growth medium to a concentration of 0.01% were added and the cells were incubated for an additional 24 hrs. At the end of incubation cells were washed in PBS and immediately frozen at −80° C. Total RNA was extracted using NucleoSpin RNA Plus kit (Macherey-Nagel) according to supplier's instructions. cDNA was synthesized by reverse transcription of total RNA using Transcriptor Reverse Transcriptase (Roche). PCR was performed on a LightCycler device (Roche Molecular Systems Inc.) according to manufacturer's instructions. Raw data were analyzed using Microsoft Excel.

LOXL2 = assay: Gene-expression analysis in normal human dermal fibroblasts: LOXL2; conditions: peptide 0.01%, 24 hrs
Description: LOXL2: This gene encodes a member of the lysyl oxidase gene family that catalyses the first step in the formation of crosslinks in collagens.
as §1

PCOLCE = assay: Gene-expression analysis in normal human dermal fibroblasts: PCOLCE; conditions: peptide 0.01%, 24 hrs
Description: PCOLCE: This gene encodes a glycoprotein which binds and drives the enzymatic cleavage of type I procollagen upon secretion from the cell, to yield the mature triple helical, highly structured fibrils.
as §1

ADAMTS2 = assay: Gene-expression analysis in normal human dermal fibroblasts: ADAMTS2; conditions: peptide 0.01%, 24 hrs
Description: ADAMTS2 is responsible for processing several types of procollagen proteins. Specifically, this enzyme clips a short chain of amino acids off one end of the procollagen. This clipping step is necessary for collagen molecules to function normally and assemble into fibrils outside cells.
as §1

“H-(beta-Ala)-Pro-Dab-NH-benzyl [H-(β-Ala)-Pro-Dab-NH-benzyl]” was tested, and the PLOD3 gene expression (PLOD3; normal human dermal fibroblasts, peptide 0.01%) was 299%, the “upregulation of genes involved in collagen fiber maturation (in words)” value (PLOD3; summary over PLOD3, LOXL2, PCOLCE, ADAMTS2, fibroblasts, 0.01%) was “significantly upregulates” and the LOXL2 gene expression (LOXL2) was 237%. For the same substance, the PCOLCE gene expression (PCOLCE) was 137% and the ADAMTS2 gene expression (ADAMTS2) was 151%.
